Laboratory results: publication PMC8284453 (Antimicrobial Agents and Chemotherapy, 2021)
≈ marks a conversion by molar mass, not a printed value. Where two headings read alike, the source gives them in different places.

Experiments:
[1] = test system: E. cloacae ECL01 (TEM-72, ACT-1, P99AmpC); test: Broth microdilution MIC; format: cell-based; conditions: Enterobacter cloacae
[2] = test system: E. cloacae ECL01 (TEM-72, ACT-1, P99AmpC); test: 24-h time-kill assay; format: cell-based; conditions: Enterobacter cloacae; lowest concentration with ≥3-log10 CFU/ml reduction at 24 h; read-out: MBC
Outline: (§1)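 Bacteria at 5 × 10^5 CFU/ml in CAMHB, incubated at 37°C with shaking at 200 rpm. Viable counts determined at 0, 2, 4, 6, 8 and 24 h by 0.5 log10 serial dilution with overnight regrowth; quantification limit 2 log10 CFU/ml.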

[3] = test system: K. pneumoniae 752286 (OXA-48); test: 24-h time-kill assay; format: cell-based; conditions: Klebsiella pneumoniae; lowest concentration with ≥3-log10 CFU/ml reduction at 24 h; read-out: MBC
Outline: as §1

E. coli ESBL4 (CTX-M-15) [4] = test: 24-h time-kill assay; format: cell-based
Outline: as §1

[5] = test system: K. pneumoniae ATCC BAA-1705 (KPC-2); test: 24-h time-kill assay; format: cell-based; conditions: Klebsiella pneumoniae, ATCCBAA1705; lowest concentration with ≥3-log10 CFU/ml reduction at 24 h; read-out: MBC
Outline: as §1

[6] = test system: K. pneumoniae 752286 (OXA-48); test: Broth microdilution MIC; format: cell-based; conditions: Klebsiella pneumoniae
[7] = test system: Enterobacterales expressing class C cephalosporinases; test: organism not typed
E. coli ESBL4 (CTX-M-15) [8] = test: Broth microdilution MIC; format: cell-based; conditions: Escherichia coli
[9] = test system: Enterobacterales expressing class C cephalosporinases
[10] = test system: Enterobacterales expressing class A ESBLs; test: organism not typed; format: cell-based, E. coli, K. pneumoniae
[11] = test system: K. pneumoniae ATCC BAA-1705 (KPC-2); test: Broth microdilution MIC; format: cell-based; conditions: Klebsiella pneumoniae, ATCCBAA1705
[12] = test system: isogenic strains of E. coli expressing Ambler class A, B, C, and D enzymes; test: microbe, parasite or virus in culture; format: cell-based, Escherichia coli; conditions: for Fold increase in MIC compared to vector control: inhibitor fixed at 4 μg/ml

C[C@@H](O)[C@H]1C(=O)N2C(C(=O)O)=C(SC3CN(C4=NCCS4)C3)[C@H](C)[C@H]12 [Tebipenem]
MIC [1]: 0.25 µg/mL (≈ 0.652 µM) | MBC [2]: 0.25 µg/mL (≈ 0.652 µM) | MBC [3]: > 32 µg/mL | MBC (E. coli ESBL4 (CTX-M-15) [4]; Escherichia coli, lowest concentration with ≥3-log10 CFU/ml reduction at 24 h, read-out: MBC): 0.06 µg/mL (≈ 0.156 µM) | outcome of 24-h time-kill assay (E. coli ESBL4 (CTX-M-15) [4]; Fig. 3a, CTB 2 μg/ml with BLI at 4 μg/ml, CTB alone 8 μg/ml, amoxicillin 8/clavulanic acid 4 μg/ml, penems 2 μg/ml): bactericidal activity | MBC [5]: 32 µg/mL (≈ 83.4 µM) | MIC [6]: 16 µg/mL (≈ 41.7 µM) | MIC50 [7]: 0.06 µg/mL (≈ 0.156 µM) | MIC90 [7]: 0.5 µg/mL (≈ 1.3 µM) | MIC (E. coli ESBL4 (CTX-M-15) [8]): ≤ 0.06 µg/mL | MIC ([9]; C. freundii 134390 (AmpC, TEM-1)): 0.03 µg/mL (≈ 0.0782 µM) | MIC ([9]; E. aerogenes 110099 (AmpC, SHV-12)): 0.12 µg/mL (≈ 0.313 µM) | MIC ([9]; E. aerogenes 111707 (AmpC, TEM-1)): 0.03 µg/mL (≈ 0.0782 µM) | MIC ([9]; E. aerogenes 111902 (AmpC, TEM-1)): 0.12 µg/mL (≈ 0.313 µM) | MIC ([9]; E. coli 128 (AmpC, SHV-12, TEM-1, Toho-2)): ≤ 0. 016 μg/ml | MIC ([9]; E. coli 3102 (AmpC, CTX-M-15, TEM-1)): ≤ 0. 016 μg/ml | MIC ([9]; E. coli CH1 (AmpC, CTX-M-15, SHV-1, SHV-5, TEM-1)): 0.06 µg/mL (≈ 0.156 µM) | MIC ([9]; E. coli EC469 (AmpC, SHV-12, TEM-1)): ≤ 0. 016 μg/ml | MIC ([9]; E. coli J53 (AmpC, SHV-5, TEM-1)): ≤ 0. 016 μg/ml | MIC ([9]; E. coli SI-P026TC (CMY-2, TEM-1)): 0.12 µg/mL (≈ 0.313 µM) | MIC ([9]; E. coli SI-PO26 (AmpC, CMY-2, TEM-1)): 0.03 µg/mL (≈ 0.0782 µM) | MIC ([9]; K. pneumoniae 129032 (MOX-2, SHV-12, TEM-1)): 0.03 µg/mL (≈ 0.0782 µM) | MIC ([9]; K. pneumoniae 178279 (AmpC, SHV-12, TEM-1)): 0.03 µg/mL (≈ 0.0782 µM) | MIC ([9]; K. pneumoniae 212027 (AmpC, FOX-5, TEM-1)): 0.03 µg/mL (≈ 0.0782 µM) | MIC ([9]; K. pneumoniae 217917 (CMY-2, TEM-1)): 0.06 µg/mL (≈ 0.156 µM) | MIC ([9]; K. pneumoniae 301313 (AmpC, SHV-12, TEM-1)): 0.06 µg/mL (≈ 0.156 µM) | MIC ([9]; K. pneumoniae 398845 (CMY-2, SHV-12, TEM-1)): 0.03 µg/mL (≈ 0.0782 µM) | MIC ([9]; K. pneumoniae SI-F100 (CMY-2, SHV-5, TEM-1)): ≤ 0. 016 μg/ml | MIC ([9]; P. mirabilis SI-F014 (AmpC, TEM-72)): 2 µg/mL (≈ 5.22 µM) | MIC ([9]; S. marcescens 132253 (AmpC, CTX-M-3, OXA-1, SHV-12, TEM-1)): 0.5 µg/mL (≈ 1.3 µM) | MIC ([9]; S. marcescens 134434 (AmpC, SHV-12, TEM-1)): 0.5 µg/mL (≈ 1.3 µM) | MIC ([9]; S. marcescens 142397 (AmpC, SHV-7, TEM-1)): 0.25 µg/mL (≈ 0.652 µM) | MIC ([9]; S. marcescens 156212 (AmpC, SHV-12, TEM-1)): 0.25 µg/mL (≈ 0.652 µM) | MIC ([9]; S. marcescens 192478 (AmpC, SHV-12, TEM-1)): 0.12 µg/mL (≈ 0.313 µM) | MIC ([9]; S. marcescens 218068 (AmpC, SHV-7, TEM-1)): 0.25 µg/mL (≈ 0.652 µM) | MIC50 [10]: 0.03 µg/mL (≈ 0.0782 µM) | MIC90 [10]: 0.06 µg/mL (≈ 0.156 µM) | MIC range ([10]; 25 isolates, BLI fixed at 4 μg/ml, AMC 2:1): ≤0.016 to 0.12 µg/mL | MIC [11]: 32 µg/mL (≈ 83.4 µM) | Fold increase in MIC compared to vector control ([12]; E. coli expressing ACT-17 (class C)): 4 | Fold increase in MIC compared to vector control ([12]; E. coli expressing CMY-2 (class C)): 4 | Fold increase in MIC compared to vector control ([12]; E. coli expressing CMY-42 (class C)): 16 | Fold increase in MIC compared to vector control ([12]; E. coli expressing CTX-M-15 (class A)): 4 | Fold increase in MIC compared to vector control ([12]; E. coli expressing GES-5 (class A)): 512 | Fold increase in MIC compared to vector control ([12]; E. coli expressing KPC-3 D179Y (class A)): 8 | Fold increase in MIC compared to vector control ([12]; E. coli expressing NDM-1 (class B)): 2,048 | Fold increase in MIC compared to vector control ([12]; E. coli expressing OXA-23 (class D)): 128 | Fold increase in MIC compared to vector control ([12]; E. coli expressing OXA-48 (class D)): 256 | Fold increase in MIC compared to vector control ([12]; E. coli expressing OXA-163 (class D)): 32 | Fold increase in MIC compared to vector control ([12]; E. coli expressing OXA-181 (class D)): 256 | Fold increase in MIC compared to vector control ([12]; E. coli expressing P99/AmpC (class C)): 8 | Fold increase in MIC compared to vector control ([12]; E. coli expressing PER-1 (class A)): 4 | Fold increase in MIC compared to vector control ([12]; E. coli expressing SHV-5 (class A)): 4 | Fold increase in MIC compared to vector control ([12]; E. coli expressing SHV-12 (class A)): 4 | Fold increase in MIC compared to vector control ([12]; E. coli expressing TEM-10 (class A), modal MIC, 4 replicates): 4 | Fold increase in MIC compared to vector control ([12]; E. coli expressing VEB-9 (class A)): 2 | MIC ([12]; Escherichia coli, read-out: Vector control MIC): 0.016 µg/mL (≈ 0.0417 µM)
